According to ChEMBL document CHEMBL4823263, “Discovery of 2-(3-(3-Carbamoylpiperidin-1-yl)phenoxy)acetic Acid Derivatives as Novel Small-Molecule Inhibitors of the β-Catenin/B-Cell Lymphoma 9 Protein-Protein Interaction” (J Med Chem, 2021):

Key:
[1] = molecular target: T1, beta-catenin-B-cell lymphoma 9 protein complex (Homo sapiens, UniProt P35222); test: Inhibition of full length C-terminal 6-His-tagged beta-catenin (1 to 781 residues) (unknown origin) expressed in Escherichia coli BL21 (DE3)-N-terminal biotinylated human BCL9 (350 to 375 residues) protein-protein interaction incubated for 1 hr by Alphascreen assay
T1 sequence (P35222 whole entry): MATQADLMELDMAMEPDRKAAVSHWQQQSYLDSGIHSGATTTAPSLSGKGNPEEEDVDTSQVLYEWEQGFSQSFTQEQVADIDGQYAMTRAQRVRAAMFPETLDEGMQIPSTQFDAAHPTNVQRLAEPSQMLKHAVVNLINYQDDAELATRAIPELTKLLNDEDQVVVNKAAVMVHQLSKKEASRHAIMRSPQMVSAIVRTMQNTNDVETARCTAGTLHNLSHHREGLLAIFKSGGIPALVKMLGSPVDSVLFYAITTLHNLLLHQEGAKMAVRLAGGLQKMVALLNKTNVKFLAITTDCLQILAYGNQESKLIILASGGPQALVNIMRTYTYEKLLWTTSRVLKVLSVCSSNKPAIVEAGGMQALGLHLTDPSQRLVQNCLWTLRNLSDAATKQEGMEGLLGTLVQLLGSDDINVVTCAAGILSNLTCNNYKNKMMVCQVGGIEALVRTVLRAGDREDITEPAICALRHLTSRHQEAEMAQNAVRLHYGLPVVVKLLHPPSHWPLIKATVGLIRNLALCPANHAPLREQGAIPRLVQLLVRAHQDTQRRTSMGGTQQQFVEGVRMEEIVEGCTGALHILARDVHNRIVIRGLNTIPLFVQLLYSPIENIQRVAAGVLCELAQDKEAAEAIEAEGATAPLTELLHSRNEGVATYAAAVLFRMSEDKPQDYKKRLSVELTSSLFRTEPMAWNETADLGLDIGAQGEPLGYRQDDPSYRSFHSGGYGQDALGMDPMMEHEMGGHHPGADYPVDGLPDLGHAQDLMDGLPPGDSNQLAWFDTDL
T1 sequence (O00512 whole entry): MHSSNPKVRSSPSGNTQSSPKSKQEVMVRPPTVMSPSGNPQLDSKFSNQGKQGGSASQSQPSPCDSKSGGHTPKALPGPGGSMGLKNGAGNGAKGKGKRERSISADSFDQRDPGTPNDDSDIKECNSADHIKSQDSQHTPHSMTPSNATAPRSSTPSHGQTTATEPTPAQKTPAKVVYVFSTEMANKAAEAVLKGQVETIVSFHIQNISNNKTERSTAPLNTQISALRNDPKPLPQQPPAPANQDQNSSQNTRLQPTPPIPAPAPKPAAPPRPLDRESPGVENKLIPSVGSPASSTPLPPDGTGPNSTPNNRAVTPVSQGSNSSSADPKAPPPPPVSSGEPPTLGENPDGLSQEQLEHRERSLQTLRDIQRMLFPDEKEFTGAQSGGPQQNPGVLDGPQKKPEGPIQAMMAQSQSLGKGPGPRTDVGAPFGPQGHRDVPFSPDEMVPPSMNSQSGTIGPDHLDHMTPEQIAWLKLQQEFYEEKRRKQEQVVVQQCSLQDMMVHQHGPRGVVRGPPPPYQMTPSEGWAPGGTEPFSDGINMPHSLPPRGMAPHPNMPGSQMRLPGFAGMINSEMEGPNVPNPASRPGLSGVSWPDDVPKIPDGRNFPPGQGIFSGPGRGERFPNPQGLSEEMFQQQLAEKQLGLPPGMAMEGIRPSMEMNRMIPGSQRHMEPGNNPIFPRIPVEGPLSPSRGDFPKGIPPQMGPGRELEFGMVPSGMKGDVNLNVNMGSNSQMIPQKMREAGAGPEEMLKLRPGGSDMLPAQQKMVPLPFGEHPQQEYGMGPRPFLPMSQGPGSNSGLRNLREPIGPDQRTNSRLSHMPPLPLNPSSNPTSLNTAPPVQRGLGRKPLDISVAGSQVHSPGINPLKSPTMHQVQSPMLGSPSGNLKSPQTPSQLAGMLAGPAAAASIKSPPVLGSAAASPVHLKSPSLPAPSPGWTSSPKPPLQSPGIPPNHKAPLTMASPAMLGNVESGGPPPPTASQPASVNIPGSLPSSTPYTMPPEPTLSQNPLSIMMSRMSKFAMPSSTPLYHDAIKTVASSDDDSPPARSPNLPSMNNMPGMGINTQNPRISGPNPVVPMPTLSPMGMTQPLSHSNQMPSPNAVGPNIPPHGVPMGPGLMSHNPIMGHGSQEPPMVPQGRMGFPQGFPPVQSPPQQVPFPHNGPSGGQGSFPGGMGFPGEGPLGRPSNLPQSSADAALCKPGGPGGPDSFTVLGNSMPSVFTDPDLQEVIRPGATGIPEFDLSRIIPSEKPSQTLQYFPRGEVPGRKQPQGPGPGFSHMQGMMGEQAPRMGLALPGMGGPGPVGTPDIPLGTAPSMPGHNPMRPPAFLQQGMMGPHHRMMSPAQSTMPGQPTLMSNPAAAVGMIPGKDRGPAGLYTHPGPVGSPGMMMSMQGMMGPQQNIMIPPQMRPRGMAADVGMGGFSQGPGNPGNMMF

[2] = Downregulation of HPRT in human MDA-MB-231 cells assessed as HPRT level at 30 uM incubated for […] by quantitative real-time PCR analysis relative to control; format: ADME, cell-based; conditions: mda-mb-231, 30 µM
[3] = molecular target: beta-catenin-B-cell lymphoma 9 protein complex (Homo sapiens) (UniProt P35222+O00512); test: Disruption of full length beta-catenin/BCL9 interaction in human HCT116 cells incubated for 24 hrs by co-immunoprecipitation assay; format: cell-based; conditions: HCT-116
[4] = molecular target: Protein Wnt-3a (Homo sapiens) (UniProt P56704); test: Inhibition of Wnt3a in human SW480 cells assessed as LEF1 level at 10 uM incubated for […] by quantitative real-time PCR analysis relative to control; format: cell-based; design: scale not given: the % may be the effect or the level left
SW480 [5] = test: Inhibition of Wnt signalling in human SW480 cells assessed as reduction in cyclinD1 expression incubated for 24 hrs by Western blot analysis; format: cell-based
MDA-MB-231 = test: Antiproliferative activity against human MDA-MB-231 cells incubated for 72 hrs by MTS assay; format: functional, cell-based; conditions: MDA-MB-231, 72 h
[6] = Downregulation of HPRT level in human SW480 cells at 3.3 uM incubated for […] by quantitative real-time PCR analysis relative to control; format: ADME, cell-based; conditions: sw480, 3.3 µM
SW480 [7] = test: Inhibition of Wnt/beta-catenin transactivation signalling in human SW480 cells harboring mutant tcf4 binding sites assessed as relative activity at 6.25 uM incubated for 24 hrs by FOPFlash luciferase assay relative to control; format: cell-based; design: scale not given: the % may be the effect or the level left
[8] = molecular target: Protein Wnt-3a (Mus musculus) (UniProt P27467); test: Inhibition of mouse wnt3a expressed in human MDA-MB-231 cells assessed as Axin2 level at 3.3 uM incubated for […] by quantitative real-time PCR analysis relative to control; format: cell-based; design: scale not given: the % may be the effect or the level left
[9] = molecular target: Protein Wnt-3a (Mus musculus) (UniProt P27467); test: Inhibition of mouse wnt3a expressed in human MDA-MB-231 cells assessed as cyclin D1 level at 3.3 uM incubated for […] by quantitative real-time PCR analysis relative to control; format: cell-based; design: scale not given: the % may be the effect or the level left

Sequence of Protein Wnt-3a (Mus musculus) (P27467 whole entry): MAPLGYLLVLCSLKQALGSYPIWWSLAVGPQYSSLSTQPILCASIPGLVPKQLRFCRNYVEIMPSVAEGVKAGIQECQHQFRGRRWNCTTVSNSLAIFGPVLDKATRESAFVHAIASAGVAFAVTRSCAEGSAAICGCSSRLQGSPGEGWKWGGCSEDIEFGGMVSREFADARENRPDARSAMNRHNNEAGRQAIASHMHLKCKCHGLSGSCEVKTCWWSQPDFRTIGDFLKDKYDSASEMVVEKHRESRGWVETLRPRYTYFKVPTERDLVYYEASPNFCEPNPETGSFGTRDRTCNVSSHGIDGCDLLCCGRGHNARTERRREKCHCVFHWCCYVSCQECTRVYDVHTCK
Sequence of Protein Wnt-3a (Homo sapiens) (P56704 whole entry): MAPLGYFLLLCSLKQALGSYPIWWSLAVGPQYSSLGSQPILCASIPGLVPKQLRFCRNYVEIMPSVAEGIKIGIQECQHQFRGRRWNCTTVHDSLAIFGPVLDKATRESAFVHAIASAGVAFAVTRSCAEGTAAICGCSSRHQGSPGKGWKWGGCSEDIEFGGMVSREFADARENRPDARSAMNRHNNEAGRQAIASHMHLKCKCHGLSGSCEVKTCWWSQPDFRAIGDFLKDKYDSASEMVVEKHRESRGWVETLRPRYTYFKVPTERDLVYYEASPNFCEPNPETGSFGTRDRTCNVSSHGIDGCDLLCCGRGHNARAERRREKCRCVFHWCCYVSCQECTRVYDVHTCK

## CC(C)(Oc1cccc(N2CCC[C@H](C(=O)N(Cc3ccc(-c4cccs4)cc3)C3CC3)C2)c1)C(=O)NS(=O)(=O)c1ccc(C#N)cc1
[1]
  IC50: 4.4 µM
[2]
  Activity: 99%
[3]
  Activity: Dose-Dependent Effect
[4]
  Activity: 77%
SW480 [5]
  Activity: Dose-Dependent Effect
MDA-MB-231
  IC50: 14.3 µM
[6]
  Activity: 98%
SW480 [7]
  Activity: 97%
[8]
  Activity: 69%
[9]
  Activity: 94%
